Measured values as given in US20120225889A1, “USE OF MACROCYCLIC LACTONE DERIVATIVES FOR THE TREATMENT OF INFLAMMATORY DISORDERS” (PIRAMAL LIFE SCIENCES LIMITED, priority 2010, published 2012).
Like-named read-outs stand apart in the source and are kept apart here.

Assays:
MyD88 = assay: Gene expression profile using RTQ-PCR: MyD88; assay type: cell-based, human; conditions: 3 μM
Description: The effect of the compound of example 7 was measured in stimulated untreated cells from the monocytic cell line (THP-1), human monocytes and synovial cells from rheumatoid arthritis patient. The effect of the compound in the THP-1 cell line was measured in terms of gene expression and was expressed as fold changes as compared to the cell stimulated control with no drug treatment.
THP-1 cells, human monocytes and synovial cells were treated with compound of example 7 or vehicle (0.5% DMSO). Total RNA isolation using a commercial RNA extraction kit (Qiagen Corporation, Germany) The first-strand cDNA was synthesized from total RNA using first strand cDNA synthesis kit from Invitrogen Corporation (California, USA). This was followed by real time quantitative polymerase chain reaction (RTQ PCR) using gene specific primers and standard thermal program of initial denaturation at 95° C. for 5 min and cycles of 95° C. for 10 seconds, followed by 60° C. for 30 seconds (Realplex PCR machine from Eppendorf, Germany). Quantitative measurement of products made during PCR cycles was normalized against a housekeeping gene (Actin) and was used to measure the gene expression as fold changes as compared to respective control.

hPBMCs = assay: Lymphocyte proliferation assay (T-cell proliferation of normal hPBMCs); assay type: cell-based; conditions: Homo sapiens
Source text: The assay method was designed as in references, The Journal of Immunology, 153, 1-9, (1994), and Clinical and Diagnostic Laboratory Immunology, 7, 687-692, (2000), the disclosure of which is incorporated by reference for the teaching of the assay.
hPBMCs were obtained from healthy donors by centrifugation of heparinized venous blood over Ficoll/Hypaque solution (Histopaque-1077, Sigma, USA). Isolated hPBMCs were suspended in RPMI 1640 culture medium supplemented with 10% FBS and seeded at a density of 50,000 cells/well in a 96-well plate (Nunc, USA). The cells were incubated at 37° C., 5% CO2 for a period of 24 h. These cells were used for the lymphocyte proliferation as well as cytokine release assay.
The plated cells were treated with different concentrations of the test compound (prepared as 20 mM stock in DMSO and diluted with DMSO to achieve the following final concentrations in the assay: 100, 10, 1, 0.1, 0.01, 0.001 and 0.0001 μM) and were incubated for 30 min. The cells were then stimulated with 5 ng/mL PMA (Sigma, USA, prepared as 100 μg/mL stock in RPMI and was diluted to 5 ng/mL) and 5 μg/mL PHA (Sigma, USA, prepared as a 1 mg/mL stock in RPMI). The plates were incubated at 37° C., 5% CO2 for 48 h. The cells were treated overnight with 0.1 μCi of tritiated thymidine per well (obtained from BARC, India; prepared as stock of 1 mCi/mL) and was diluted in KRPH buffer to 10 μCi/mL and […] and was added per well to obtain a final concentration 0.1 μCi/well) and at the end of 48 h, the anti-proliferative effect of the compound was measured using the following formula: […]
Controls consisted of hPBMCs with PHA and PMA (Stimulated), hPBMCs with RPMI (Un-stimulated), hPBMCs with FK506 (positive control, Sigma, USA, prepared as 20 mM stock in DMSO and diluted with DMSO to achieve the following final concentrations in the assay: 100, 10, 1, 0.1, 0.01, 0.001 and 0.0001 μM).

## C/C=C/C(O)C(C)/C=C/C(=N\O)C(C)C(O)C(C)C1OC(=O)/C(OC)=C/C(C)=C/C(C)C(O)C(CC)C(O)C(C)C/C(C)=C/C=C/C1OC (centres unmarked) [Compound of example 7, (3Z,5E,13E,15E)-18-((5Z,6E,10E)-3,9-Dihydroxy-5-(hydroxymino)-4,8-dimethyldodeca-6,10-dien-2-yl)-9-ethyl-8,10-dihydroxy-3,17-dimethoxy-5,7,11,13-tetramethyl oxacyclooctadeca-3,5,13,15-tetraen-2-one]
MyD88; Human monocytes, 3 h, ± SE, N = 3
  MyD88 gene expression: −0.2 + 1.9 log fold change
MyD88; Synovial cells, 12 h, N = 1
  MyD88 gene expression: −0.5 log fold change
MyD88; THP-1 cells, 12 h, ± SE, N = 3
  MyD88 gene expression: −0.2 + 0.2 log fold change
hPBMCs; read-out: Stimulated hPBMC's IC50 (inhibition of cell proliferation)
  IC50: 0.003 µM
hPBMCs; read-out: Unstimulated hPBMC's IC50 (inhibition of cell proliferation)
  IC50: 5 µM
